Values of other authors as cited in US20060280815A1, “Nutritional composition which promotes weight loss, burns calories, increases thermogenesis, supports energy metabolism and/or suppresses appetite” (priority 2004, published 2006).

Details: people with type 2 diabetes; acute abstention from caffeine

SMILES: Cn1c(=O)c2c(ncn2C)n(C)c1=O [caffeine]
- reduction of postprandial glucose levels: 21%
